Source: US20080051382A1, “Crystalline Forms of 3-Beta-Amino 17-Methylene Androstane-6-Alpha 7-Beta-Diol Hydrochloride” (INFLAZYME PHARMACEUTICALS LTD., priority 2003, published 2008)
Counter-ions that a name gives are not always drawn.

Tests used:
Type in all cases: physicochemical
[1] = Hygroscopicity of the solid form
[2] = Stability of the crystalline form versus relative humidity
[3] = Thermal stability of the crystalline form on heating

In the case of `C=C1CC[C@H]2[C@@H]3[C@@H](O)[C@H](O)C4C[C@@H](N)CC[C@]4(C)[C@H]3CC[C@]12C` (stereo partly drawn) [acetate salt, 3-beta-amino-17-methylene-androstane-6-alpha,7-beta-diol, reference compound], the hygroscopicity [1] is reported as “hygroscopic”.
In the case of `C=C1CCC2C3C(CC[C@]12C)[C@@]1(C)CC[C@H](N)CC1[C@@H](O)[C@@H]3O.Cl` (stereo partly drawn) [form A, 3-beta-amino-17-methylene-androstane-6-alpha,7-beta-diol hydrochloride], the “form conversion under high relative humidity” value ([2]; left for 3 days under a relative humidity above 95%) is reported as “converts to form B”, the “temperature above which the form decomposes completely” value [3] is reported as “above 280 °C” and the “temperature at which the form begins to deteriorate chemically” value [3] is reported as “around 240 °C”. The hygroscopicity [1] was “absence of hygroscopicity”.
With `C=C1CCC2C3C(CC[C@]12C)[C@@]1(C)CC[C@H](N)CC1[C@@H](O)[C@@H]3O.Cl` (stereo partly drawn) [form B, 3-beta-amino-17-methylene-androstane-6-alpha,7-beta-diol hydrochloride] the “relative humidity range in which the crystalline form is stable” value ([2]; crystalline powder, hydrochloride) was “above 50 % RH”.
In the case of `C=C1CCC2C3C(CC[C@]12C)[C@@]1(C)CC[C@H](N)CC1[C@@H](O)[C@@H]3O.Cl` (stereo partly drawn) [form C, 3-beta-amino-17-methylene-androstane-6-alpha,7-beta-diol hydrochloride], the “temperature above which the form turns into anhydride D by heating” value ([3]; conversion of mono-hydrate to anhydrous form D) is reported as “above 60 °C”.
